Data: patent publication EP1228058B1, “BENZOPYRANYL GUANIDINE DERIVATIVES, PROCESS FOR PREPARATION THEREOF, AND PHARMACEUTICAL COMPOSITIONS CONTAINING THEM” (Dongbu Hannong Chemical Co., Ltd., priority 1999, dated 2001)

Tests used:
[1] = Acute oral toxicity test in rats; settings: rat, in vivo, single oral dose in 0.5% methyl cellulose, read-out: lethal dose (LD50) for oral administration
Outline: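 Six-week-old SPF SD rats, two per group, received a single oral dose of 1 g/kg suspended in 0.5% methyl cellulose (10 ml/kg). Survivors at the end of observation underwent haematology, serum chemistry, necropsy and histopathology of vital organs with macroscopic lesions.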

[2] = tested on: cerebral cortical neurons; test: Protective activity for neurons against iron-induced death (LDH release); format: cell-based; settings: Rattus norvegicus, Cortical neurone, FeSO4 50 uM, 24 hours, LDH reduction, read-out: % Protection
Description: From the brains of 17-18 day-old rat embryos, cerebral cortical neurons were isolated and then, cultured at 37 °C for 7-9 days in a 5% CO2 incubator. The cortical cell cultures were washed twice with a minimum essential medium (MEM) to reduce the serum concentration to 0.2 % and pre-treated for 30 min with 10 uM and 30 uM of each of test compounds. For the experiments, the test compounds were dissolved in DMSO and diluted in a medium. At this time, the final concentration of DMSO was not allowed to exceed 0.2 %. For a control group, only vehicle was applied.
After the pre-treatment with test compounds or vehicle, FeSO4 was added to a final concentration of 50 uM, and the cultures were maintained for 24 hours in a CO2 incubator. During incubation, lactate dehydrogenase (LDH) was released into the medium upon neuronal death by the oxidative toxicity of iron. The extent of neuronal damage was assessed by measuring the amount of LDH secreted into the media. The protective effect of the compounds of interest on neurons was evaluated by calculating the LDH reduction rate of treatment group compared with that of the control group.

[3] = tested on: ischemic heart models of rats; test: Heart protective (anti-ischemic) activity in ischemic heart models of anesthetized rats; format: in vivo; settings: 45 min occlusion, 90 min reperfusion
Description: Male rats (350-450 g, obtained from the Experimental Animal Team of the Korea Research Institute of Chemical Technology) were anesthetized by the intraperitoneal injection of pentobarbital at a dose of 75 mg/kg. After trachetomy, the rats were rendered to respire artificially at a rate of 60/min with a stroke volume of 10 ml/kg. Cannulars were inserted into the fermoral vein and the fermoral artery and used for drug administration and blood pressure measurement, respectively.
In the ischemic myocardium damage models, the body temperature has an important influence on the results. To avoid the change in the body temperature, a body temperature measuring probe was inserted into the rectum of each rat and the body temperature was constantly kept at 37 °C with the aid of a homeothermic blanket control unit.
Afterwards, during testing, a continuous measurement was made of the mean arterial blood pressures and heart rates from the rats. For the measurement of the blood pressure, a pressure transducer, such as that manufactured by Grass Ins., MA, U.S.A., identified as Model Statham P23XL, was used. The heart rate was measured by a tachometer, such as that manufactured by Gould Inc., OH, U.S.A., identified as Biotachometer. In addition, all of the changes occurring were continuously recorded through the Gould 2000 chart recorder, manufactured by Gould Inc.
The left coronary artery was occluded according to the Selye H. method as follows. The rats underwent a left thoracotomy operation for partial opening of the chest and the right-side chest was pressurized by the middle finger of the left hand to push the heart out. Immediately after the left anterior descending coronary artery hereinafter referred to as (LAD) was carefully stitched using a suture needle with 5-0 silk ligature, the heart was then repositioned in the thoracic cavity while both ends of the ligature were situated outside. The opposite ligature ends were passed through a PE tube (PE100, 2.5 cm) and allowed to stand loose for 20 min for stabilization. Via the cannula inserted into the femoral vein, vehicles or drugs were administered into the rats which were rendered to stand for 30 min in order to sufficiently elicit the efficacies of the drugs. BMS-180448 was used as a control drug and the i.v.administration dose was 0.3 mg/kg for all test drugs of interest and the control drug.
Next, the PE tube which had the doubled strands of the ligature passed therethrough was pushed toward the heart and then, set upright by tightly pulling end regions of the ligature with a hemostatic pincette while pressing the coronary artery. The PE tube was allowed to stand for 45 min for the occlusion of the coronary artery, followed by the removal of the hemostatic pincette and then, by the reperfusion for 90 min.
After the reocclusion of the coronary artery in accordance with the above procedure, the rats were administered with 2 ml of a 1% Evans blue through an intravenous route. Subsequently, an excess of pentobarbital was intravenously injected to kill the rats, after which the heart was removed and then, deprived of the right ventricle and both atria. The left ventricle was cut horizontally to the heart apex into 5 or 6 slices which were weighed. From the surface of each slice, images were input with the aid of a Hi-scope into a computer installed with an image analyzing program (Image Pro Plus). From the images input into the computer, the area of the normal blood stream tissue region which appeared blue in a computer monitor and the area which appeared colorless were measured. The percentage of the colorless area to the total area of each slice was calculated and multiplied by the weight of each slice to determine the area at risk (AAR) of each slice. […]

| Compound | LD50 [1] | inhibition at 10 µM [2] | inhibition at 30 µM [2] | Anti-ischemic Activity (in vivo, rats) (0.3 mg/kg i.v.) IZ/AAR (%) [3] |
| --- | --- | --- | --- | --- |
| COC(OC)[C@@]1(C)Oc2ccc([N+](=O)[O-])cc2[C@H](NC(=NC#N)NCc2ccccc2)[C@H]1O [Example 24, (2S, 3R, 4S)-N''-cyano-N-(6-nitro-3,4-dihydro-3-hydroxy-2-methyl-2-dimethoxymethyl-2H-benzopyran-4-yl)-N'-benzylguanidine] | > 1000 mg/kg | 29% | 47% | 48.48% |
| COC(OC)[C@@]1(C)Oc2ccc([N+](=O)[O-])cc2[C@@H](NC(=NC#N)NCc2ccccc2)[C@@H]1O [Example 25, (2S, 3S, 4R)-N''-cyano-N-(6-nitro-3,4-dihydro-3-hydroxy-2-methyl-2-dimethoxymethyl-2H-benzopyran-4-yl)-N'-benzylguanidine] | > 1000 mg/kg | – | 69% | 48.55% |
| COC(OC)[C@@]1(C)Oc2ccc([N+](=O)[O-])cc2[C@H](NC(=NC#N)Nc2ccccc2Cl)[C@H]1O [Example 32, (2S, 3R, 4S)-N''-cyano-N-(6-nitro-3,4-dihydro-3-hydroxy-2-methyl-2-dimethoxymethyl-2H-benzopyran-4-yl)-N'-(2-chlorophenyl)guanidine] | > 1000 mg/kg | – | – | 44.72% |
| COC(OC)[C@@]1(C)Oc2ccc([N+](=O)[O-])cc2[C@@H](NC(=NC#N)NCc2ccccc2)[C@@H]1OC(C)=O [Example 38, (2S, 3S, 4R)-N''-cyano-N-(6-nitro-3,4-dihydro-3-acetoxy-2-methyl-2-dimethoxymethyl-2H-benzopyran-4-yl)-N'-benzylguanidine] | > 1000 mg/kg | 56% | 78% | 51.13% |
| COC(OC)[C@@]1(C)Oc2ccc(N)cc2[C@@H](NC(=NC#N)NCc2ccccc2)[C@@H]1O [Example 40, (2S, 3S, 4R)-N''-cyano-N-(6 - amino-3,4-dihydro-3-hydroxy-2-methyl-2-dimethoxymethyl-2H-benzopyran-4-yl)-N'-benzylguanidine] | > 1000 mg/kg | 45% | 97% | 30.25% |
